Like-named read-outs stand apart in the source and are kept apart here.
Tested on: HCV replicon
Assay: HCV replicon assay in human hepatoma Huh-7 cell line (luciferase readout)
Assay type: cell-based
Details: for inhibition at 2 µM: Hepatitis C virus, Huh-7, 72 h, read-out: % inhibition at 2 μM
Protocol: The anti-HCV activity of the compounds of this invention was tested in a human hepatoma Huh-7 cell line harboring a HCV replicon. The assay comprised the following steps:
Serial dilution was performed in 100% DMSO in a 384-well plate. A solution containing a compound at 225-fold concentration of the starting final serial dilution concentration was prepared in 100% DMSO and 15 uL added to the pre-specified wells in column 3 or 13 of a polypropylene 384-well plate. The rest of the 384-well plate was filled with 10 uL 100% DMSO except for columns 23 and 24, where 10 uL of 500 uM a HCV protease inhibitor (ITMN-191) in 100% DMSO was added. The HCV protease inhibitor was used a control of 100% inhibition of HCV replication. The plate was then placed on a Biomek FX Workstation to start the serial dilution. The serial dilution was performed for ten cycles of 3-fold dilution from column 3 to 12 or from column 13 to 22.
To each well of a black polypropylene 384-well plate, 90 μL of cell media containing 1600 suspended Huh-7 HCV replicon cells was added with a Biotek uFlow Workstation. A volume of 0.4 μL of the compound solution was transferred from the serial dilution plate to the cell culture plate on a Biomek FX Workstation. The DMSO concentration in the final assay condition was 0.44%. The plates were incubated for 3 days at 37° C. with 5% CO2 and 85% humidity.
a) Assessment of cytotoxicity: The media in the 384-well cell culture plate was aspirated with a Biotek EL405 plate-washer. A volume of 50 μL of a solution containing 400 nM Calcein AM in 100% PBS was added to each well of the plate with a Biotek uFlow Workstation. The plate was incubated for 30 minutes at room temperature before the fluorescence signal ([…]) was measured with a Perkin Elmer Envision Plate Reader.
b) Assessment of inhibition of viral replication: The calcein-PBS solution in the 384-well cell culture plate was aspirated with a Biotek EL405 plate-washer. A volume of 20 μL of Dual-Glo luciferase buffer (Promega, Dual-Glo Luciferase Assay Reagent, cat. #E298B) was added to each well of the plate with a Biotek uFlow Workstation. The plate was incubated for 10 minutes at room temperature. A volume of 20 μL of a solution containing 1:100 mixture of Dual-Glo Stop & Glo substrate (Promega, Dual-Glo Luciferase Assay Reagent, cat. #E313B) and Dual-Glo Stop & Glo buffer (Promega, Dual-Glo Luciferase Assay Reagent, cat #E314B) was then added to each well of the plate with a Biotek uFlow Workstation. The plate was incubated at room temperature for 10 minutes before the luminescence signal was measured with a Perkin Elmer Envision Plate Reader.
The percent cytotoxicity was determined by calcein AM conversion to fluorescent product. The average fluorescent signal from the DMSO control wells were defined as 100% nontoxic. The individual fluorescent signal from testing compound treated well was divided by the average signal from DMSO control wells and then multiplied by 100% to get the percent viability. The percent anti-HCV replication activity was determined by the luminescence signal from the testing well compared to DMSO controls wells. The background signal was determined by the average luminescence signal from the HCV protease inhibitor treated wells and was subtracted from the signal from the testing wells as well as the DMSO control wells. Following 3-fold serial dilutions, the EC50 and CC50 values were calculated by fitting % inhibition at each concentration to the following equation: % inhibition=100%/[(EC50/[I])^b+1]
Where b is Hill's coefficient. See, for reference, Hill, A. V., The Possible Effects of the Aggregation of the Molecules of Haemoglobin on its Dissociation Curves, J. Physiol. 40: iv-vii. (1910).
% inhibition values at a specific concentration, for example 2 μM, can also be derived from the formula above.

[1] = 2 μM, Huh-7 HCV replicon cells, 3 days incubation, inhibition of viral replication

| SMILES | inhibition at 2 µM [1] [%] | also measured |
| --- | --- | --- |
| CC1=CCC(C(=O)N(c2cc(C#CC(C)(C)C)sc2C(=O)O)[C@H]2CC[C@](O)(CO[C@H]3CCOC3)CC2)[C@H](C)C1 (single isomer, unassigned) [Compound 5A, 5-(3,3-dimethyl-but-1-ynyl)-3-{(4,6R-dimethyl-cyclohex-3-enecarbonyl)-[4-hydroxy-4-(tetrahydro-furan-3-yloxymethyl)-cyclohexyl]-amino}-thiophene-2-carboxylic acid] | 100 |  |
| CC1=CCC(C(=O)N(c2cc(C#CC(C)(C)C)sc2C(=O)O)[C@H]2CC[C@](O)(CO[C@H]3CCOC3)CC2)[C@H](C)C1 (single isomer, unassigned) [Compound 5B, 5-(3,3-dimethyl-but-1-ynyl)-3-{(4,6R-dimethyl-cyclohex-3-enecarbonyl)-[4-hydroxy-4-(tetrahydro-furan-3-yloxymethyl)-cyclohexyl]-amino}-thiophene-2-carboxylic acid] |  | % inhibition at 2 μM [1]: 99.95% |
| CC(C)(C)C#Cc1cc(N(C(=O)[C@H]2CC[C@H](C)CC2)C2CCC(O)(COc3cccnc3)CC2)c(C(=O)O)s1 (stereo partly shown) [Compound 1, 5-(3,3-Dimethylbut-1-ynyl)-3-(N-(4-hydroxy-4-((pyridin-3-yloxy)methyl)cyclohexyl)-4-methylcyclohexanecarboxamido)thiophene-2-carboxylic acid] | 99.9 |  |
| CC(C)(C)C#Cc1cc(N(C(=O)[C@H]2CC[C@H](C)CC2)[C@H]2CC[C@](O)(CO[C@@H]3CCOC3)CC2)c(C(=O)O)s1 [Compound 2, 5-(3,3-Dimethyl-but-1-ynyl)-3-[[4-hydroxy-4-(tetrahydrofuran-3R-yloxymethyl)-cyclohexyl]-(4-methyl-cyclohexanecarbonyl)-amino]-thiophene-2-carboxylic acid] | 100 |  |
| CC(C)(C)C#Cc1cc(N(C(=O)[C@H]2CC[C@H](C)CC2)[C@H]2CC[C@](O)(CO[C@H]3CCOC3)CC2)c(C(=O)O)s1 [Compound 3, 5-(3,3-Dimethyl-but-1-ynyl)-3-[[4-hydroxy-4-(tetrahydrofuran-3S-yloxymethyl)-cyclohexyl]-(4-methyl-cyclohexanecarbonyl)-amino]-thiophene-2-carboxylic acid] | 100 |  |
| CC(C)(C)C#Cc1cc(N(C(=O)[C@H]2CC[C@H](C)CC2)[C@H]2CC[C@@](O)(CO[C@H]3CCOC3)CC2)c(C(=O)O)s1 [Compound 4] | 99.6 |  |
| CC1=CCC(C(=O)N(c2cc(C#CC(C)(C)C)sc2C(=O)O)[C@H]2CC[C@](O)(CO[C@H]3CCOC3)CC2)[C@@H](C)C1 (stereo partly drawn) [Compound 6, 5-(3,3-dimethyl-but-1-ynyl)-3-{(4,6S-dimethyl-cyclohex-3-enecarbonyl)-[4-hydroxy-4-(tetrahydro-furan-3(S)-yloxymethyl)-cyclohexyl]-amino}-thiophene-2-carboxylic acid] | 99.9 |  |
| CC1=CC[C@@H](C(=O)N(c2cc(C#CC(C)(C)C)sc2C(=O)O)[C@H]2CC[C@](O)(CO[C@@H]3CCOC3)CC2)CC1 [Compound 7] | 100 |  |
| CC1=CC[C@@H](C(=O)N(c2cc(C#CC(C)(C)C)sc2C(=O)O)[C@H]2CC[C@](O)(CO[C@H]3CCOC3)CC2)CC1 [Compound 8] | 99.9 |  |
| CC1=CC[C@H](C(=O)N(c2cc(C#CC(C)(C)C)sc2C(=O)O)[C@H]2CC[C@](O)(CO[C@H]3CCOC3)CC2)CC1 [Compound 9] | 100 |  |
| CC1=CC[C@H](C(=O)N(c2cc(C#CC(C)(C)C)sc2C(=O)O)[C@H]2CC[C@](O)(CO[C@@H]3CCOC3)CC2)CC1 [Compound 10] | 100 |  |
| CC1=CC[C@H](C(=O)N(c2cc(C#CC(C)(C)C)sc2C(=O)O)[C@H]2CC[C@](O)(CO[C@H]3CCOC3)CC2)[C@@H](C)C1 [Compound 16] |  | inhibition at 2 µM: 100% |
| COC(=O)c1sc(C#CC(C)(C)C)cc1N(C(=O)[C@H]1CC=C(C)C[C@@H]1C)[C@H]1CC[C@](O)(CO[C@H]2CCOC2)CC1 [Compound 17] | 78.8 |  |
| CC1=CC[C@H](C(=O)N(c2cc(C#CC(C)(C)C)sc2C(=O)O)[C@H]2CC[C@](O)(CO[C@@H]3CCOC3)CC2)[C@@H](C)C1 [Compound 18] | 100 |  |
| [2H]C([2H])([2H])C(C#Cc1cc(N(C(=O)[C@H]2CC=C(C)CC2)C2CCC(O)(CO[C@H]3CCOC3)CC2)c(C(=O)O)s1)(C([2H])([2H])[2H])C([2H])([2H])[2H] (stereo partly shown) [Compound 24] | 100 |  |
| CC1=CC[C@H](C(=O)N(c2cc(C#CC(C)(C)CO)sc2C(=O)O)[C@H]2CC[C@](O)(CO[C@H]3CCOC3)CC2)CC1 [Compound 29, 5-(4-hydroxy-3,3-dimethylbut-1-ynyl)-3-((R)-N-((1R,4S)-4-hydroxy-4-(((S)-tetrahydrofuran-3-yloxy)methyl)cyclohexyl)-4-methylcyclohex-3-enecarboxamido)thiophene-2-carboxylic acid] | 100 |  |
